Test results reported in patent US5183821A, “Method for treating leukemias using N-(2-dimethylaminoethyl)-3-amino-1,8-naphthalimide for treating leukemias and solid tumors” (priority 1991, dated 1993).
In brackets after ≈: the same amount, converted by molar mass.

Columns and labels:
[1] = test system: HeLa cells; details: cytotoxic activity in vitro, monolayer; cited from earlier work
[2] = test system: leukemia P388; experiment: NCI studies against leukemia P388 (Appendix 1, MDA and T/C); type: in vivo, murine; details: for minimal effective dose: P388; for minimal effective dose / MDA against leukemia P388: minor active dose reaching T/C≥120; for STATUS (activity against leukemia P388): at the dose of the same line of the appendix table; for response vs control in vivo at 30 mg/kg: P388, dose 30,00 mg/kg; for response vs control in vivo at 60 mg/kg: P388, dose 60,00 mg/kg; for response vs control in vivo at 120 mg/kg: P388, dose 120,00 mg/kg; for response vs control in vivo at 240 mg/kg: P388, dose 240,00 mg/kg
Excerpt: On the other hand, murine transplantable leukemias are a good predictor of anti-leukemia activity in human beings (Kenis "Dose schedules and mode of administration of chemotherapeutic agents in man". Recent Results Cancer Res. 21, 54-61 (1969). Only those tests which use the survival times as an activity parameter are valid as predictors of antileukemia activity in human beings (for instance, leukemia p388 y L-1210), whilst "in vitro" tests (HeLa cells and other) are inappropriate (Llombart-Rodriguez, 1983). NCI data generated in the last years confirm the value of above assertions to compounds of general formula [drawing 1] as described in U.S. Pat. No. 4,204,063.
Experimental results from NCI studies against leukemia P388 are shown in an appendix (Appendix 1). In order to simplify the presentation of results we have extracted from these the minor active dose (MDA) against leukemia P388--for each compound. MDA is defined as the minor dose of the drug that reaches the minimal activity criteria of the NCI. For leukemia P388 this criteria on the basis of survival time is a minimal increase in survival of treated animals over a control resulting in a T/C≥120. In the following table the MDA for 14 examples are presented. In cases where none of the tested doses reached the MDA, the MDA is indicated as "NONE". The column "cytotoxic activity" has been extracted from U.S. Pat. No. 4,204,063. Data are presented in order of the highest to lowest cytotoxic activity.

## COc1cc2c3c(cccc3c1)C(=O)N(CCN(C)C)C2=O [Example 26]
[1]
  ID50 in HeLa cells: 1.5 µg/mL (≈ 5.03 µM)
[2]; Mus musculus
  minimal effective dose: 18.9 mg/kg
[2]
  STATUS (activity against leukemia P388): T/C > 120 active

## O=C1c2cccc3cc(O)cc(c23)C(=O)N1CCN1CCOCC1 [Example 24]
[1]
  ID50 in HeLa cells: 3.5 µg/mL (≈ 10.7 µM)
[2]; Mus musculus
  response vs control in vivo at 30 mg/kg: 107%
  response vs control in vivo at 60 mg/kg: 110%
  response vs control in vivo at 120 mg/kg: 117%
  response vs control in vivo at 240 mg/kg: 127%
  minimal effective dose: 240 mg/kg
[2]
  STATUS (activity against leukemia P388): T/C > 120 active

## CCOC(=O)Nc1cc2c3c(cccc3c1)C(=O)N(CCN1CCCC1)C2=O [Example 29]
[1]
  ID50 in HeLa cells: 10.0 µg/mL (≈ 26.2 µM)
[2]; Mus musculus
  response vs control in vivo at 30 mg/kg: 127%
  response vs control in vivo at 60 mg/kg: 131%
  response vs control in vivo at 120 mg/kg: 135%
  response vs control in vivo at 240 mg/kg: 158%
  minimal effective dose: 30 mg/kg
[2]
  STATUS (activity against leukemia P388): T/C > 120 active

## Nc1cc2c3c(cccc3c1)C(=O)N(CCN1CCCCC1)C2=O [Example 12]
[1]
  ID50 in HeLa cells: 8.0 µg/mL (≈ 24.7 µM)
[2]; Mus musculus
  response vs control in vivo at 60 mg/kg: 108%
  response vs control in vivo at 120 mg/kg: 103%
  response vs control in vivo at 240 mg/kg: 114%
[2]
  STATUS (activity against leukemia P388): None dose tested
  MDA against leukemia P388: NONE

## CCN(CC)CCCN1C(=O)c2cccc3cc([N+](=O)[O-])cc(c23)C1=O [Example 3]
[1]
  ID50 in HeLa cells: 20.0 µg/mL (≈ 56.3 µM)
[2]; Mus musculus
  response vs control in vivo at 60 mg/kg: 108%
  response vs control in vivo at 120 mg/kg: 103%
  response vs control in vivo at 240 mg/kg: 114%
[2]
  STATUS (activity against leukemia P388): None dose tested
  MDA against leukemia P388: NONE

## CCN(CC)CCN1C(=O)c2cccc3cc(N)cc(c23)C1=O [Example 10]
[1]
  ID50 in HeLa cells: 3.0 µg/mL (≈ 9.63 µM)
[2]; Mus musculus, P388, dose 1,56 mg as printed
  response vs control in vivo at 1 mg: 101%
[2]; Mus musculus, P388, dose 1,60 mg as printed
  response vs control in vivo at 1 mg: 100%
[2]; Mus musculus, P388, dose 3,12 mg as printed
  response vs control in vivo at 3 mg: 98%
[2]; Mus musculus, P388, dose 3,20 mg as printed
  response vs control in vivo at 3 mg: 108%
[2]; Mus musculus, P388, dose 6,25 mg as printed
  response vs control in vivo at 6 mg: 98%
[2]; Mus musculus, P388, dose 6,50 mg as printed
  response vs control in vivo at 6 mg: 107%
[2]; Mus musculus, P388, dose 13,00 mg as printed
  response vs control in vivo at 13 mg: 121%
[2]; Mus musculus, P388, dose 25,00 mg as printed
  response vs control in vivo at 25 mg: 114%
[2]; Mus musculus, P388, dose 26,00 mg as printed
  response vs control in vivo at 26 mg: 124%
[2]; Mus musculus, P388, dose 50,00 mg as printed
  response vs control in vivo at 50 mg: 160%
[2]; Mus musculus, P388, dose 100,00 mg as printed
  response vs control in vivo at 100 mg: < 100%
[2]; Mus musculus
  minimal effective dose: 3.2 mg/kg
[2]
  STATUS (activity against leukemia P388): T/C > 120 active

## Nc1cc2c3c(cccc3c1)C(=O)N(CCN1CCOCC1)C2=O [Example 13]
[1]
  ID50 in HeLa cells: 10.0 µg/mL (≈ 30.7 µM)
[2]; Mus musculus
  response vs control in vivo at 60 mg/kg: 102%
  response vs control in vivo at 120 mg/kg: 102%
  response vs control in vivo at 240 mg/kg: 109%
[2]
  STATUS (activity against leukemia P388): None dose tested
  MDA against leukemia P388: NONE

## O=C1c2cccc3cc([N+](=O)[O-])cc(c23)C(=O)N1CCN1CCOCC1 [Example 4]
[1]
  ID50 in HeLa cells: 6.0 µg/mL (≈ 16.9 µM)
[2]; Mus musculus
  response vs control in vivo at 60 mg/kg: 96%
  response vs control in vivo at 120 mg/kg: 96%
  response vs control in vivo at 240 mg/kg: 100%
[2]
  STATUS (activity against leukemia P388): None dose tested
  MDA against leukemia P388: NONE

## CCOC(=O)Nc1cc2c3c(cccc3c1)C(=O)N(CCN(C)C)C2=O [Example 28]
[1]
  ID50 in HeLa cells: 10.0 µg/mL (≈ 28.1 µM)
[2]; Mus musculus
  response vs control in vivo at 30 mg/kg: 123%
  minimal effective dose: 30 mg/kg
[2]
  STATUS (activity against leukemia P388): T/C > 120 active

## COc1cc2c3c(cccc3c1)C(=O)N(CCN1CCCC1)C2=O [Example 27]
[1]
  ID50 in HeLa cells: 0.75 µg/mL (≈ 2.31 µM)
[2]; Mus musculus, P388, dose 17,30 mg/kg
  response vs control in vivo at 17 mg/kg: 112%
[2]; Mus musculus, P388, dose 34,70 mg/kg
  response vs control in vivo at 34 mg/kg: 116%
[2]; Mus musculus, P388, dose 50,00 mg/kg
  response vs control in vivo at 50 mg/kg: 100%
[2]; Mus musculus, P388, dose 69,30 mg/kg
  response vs control in vivo at 69 mg/kg: 116%
[2]; Mus musculus, P388, dose 100,00 mg/kg
  response vs control in vivo at 100 mg/kg: 101%
[2]; Mus musculus, P388, dose 200,00 mg/kg
  response vs control in vivo at 200 mg/kg: 100%
[2]
  STATUS (activity against leukemia P388): None dose tested
  MDA against leukemia P388: NONE
[2]; dose 138,60 mg/kg
  T/C %: Toxic

## Nc1cc2c3c(cccc3c1)C(=O)N(CCN1CCCC1)C2=O [Example 11]
[1]
  ID50 in HeLa cells: 1.5 µg/mL (≈ 4.85 µM)
[2]; Mus musculus, P388, dose 24,20 mg/kg
  response vs control in vivo at 24 mg/kg: 160%
[2]; Mus musculus, P388, dose 48,39 mg/kg
  response vs control in vivo at 48 mg/kg: 96%
[2]; Mus musculus
  minimal effective dose: 6.5 mg/kg
[2]
  STATUS (activity against leukemia P388): T/C > 120 active

## CC(=O)Nc1cc2c3c(cccc3c1)C(=O)N(CCN1CCCC1)C2=O [Example 31]
[1]
  ID50 in HeLa cells: 5.0 µg/mL (≈ 14.2 µM)
[2]; Mus musculus
  response vs control in vivo at 30 mg/kg: 186%
  response vs control in vivo at 60 mg/kg: 184%
  response vs control in vivo at 120 mg/kg: 107%
  minimal effective dose: 30 mg/kg
[2]
  STATUS (activity against leukemia P388): T/C > 120 active

## CC(=O)Nc1cc2c3c(cccc3c1)C(=O)N(CCN(C)C)C2=O [Example 30]
[1]
  ID50 in HeLa cells: 4.0 µg/mL (≈ 12.3 µM)
[2]; Mus musculus, P388, dose 3,75 mg/kg
  response vs control in vivo at 3.75 mg/kg: 137%
[2]; Mus musculus, P388, dose 7,50 mg/kg
  response vs control in vivo at 7 mg/kg: 144%
[2]; Mus musculus
  response vs control in vivo at 60 mg/kg: < 100%
  minimal effective dose: 3.75 mg/kg
[2]
  STATUS (activity against leukemia P388): T/C > 120 active
[2]; dose 120,00 mg/kg
  T/C %: Toxic.
[2]; dose 240,00 mg/kg
  T/C %: Toxic.
